Data from ChEMBL document CHEMBL1134213, “Synthesis and SAR of benzamidine factor Xa inhibitors containing a vicinally-substituted heterocyclic core” (Bioorg Med Chem Lett, 2001).

How the values were obtained:
Trypsin = Trypsin (Homo sapiens, UniProt P07477+P07478+P35030); test: Binding affinity towards human trypsin; assay type: protein assay
Oryctolagus cuniculus = organism: Oryctolagus cuniculus; test: Antithrombotic efficacy was determined in a rabbit (A-V) shunt model; assay type: functional
Coagulation factor X [1] = target: Coagulation factor X (Homo sapiens, UniProt P00742); test: Binding affinity towards human Serine protease FXa
Sequence of Coagulation factor X (Homo sapiens, UniProt P00742) (P00742 41-179 limits assumed): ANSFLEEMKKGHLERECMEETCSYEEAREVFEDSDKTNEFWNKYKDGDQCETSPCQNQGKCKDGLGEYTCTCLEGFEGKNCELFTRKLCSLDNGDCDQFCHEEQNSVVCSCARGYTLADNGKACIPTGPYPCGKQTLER
Sequence of Coagulation factor X (Homo sapiens, UniProt P00742) (P00742 235-488 limits assumed): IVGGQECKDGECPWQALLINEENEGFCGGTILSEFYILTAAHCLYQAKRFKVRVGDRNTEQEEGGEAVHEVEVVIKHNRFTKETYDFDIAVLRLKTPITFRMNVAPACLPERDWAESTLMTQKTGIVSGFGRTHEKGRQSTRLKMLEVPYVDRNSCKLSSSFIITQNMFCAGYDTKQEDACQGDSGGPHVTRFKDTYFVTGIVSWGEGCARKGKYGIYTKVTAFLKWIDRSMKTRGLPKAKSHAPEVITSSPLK

Prothrombin = Prothrombin (Homo sapiens, UniProt P00734); test: Binding affinity towards human thrombin
Coagulation factor X [2] = target: T1, Coagulation factor X (Oryctolagus cuniculus, UniProt O19045); test: Binding affinity towards Rabbit Coagulation factor X in a rabbit arterio-venous (A-V) shunt model
T1 sequence (O19045 whole entry): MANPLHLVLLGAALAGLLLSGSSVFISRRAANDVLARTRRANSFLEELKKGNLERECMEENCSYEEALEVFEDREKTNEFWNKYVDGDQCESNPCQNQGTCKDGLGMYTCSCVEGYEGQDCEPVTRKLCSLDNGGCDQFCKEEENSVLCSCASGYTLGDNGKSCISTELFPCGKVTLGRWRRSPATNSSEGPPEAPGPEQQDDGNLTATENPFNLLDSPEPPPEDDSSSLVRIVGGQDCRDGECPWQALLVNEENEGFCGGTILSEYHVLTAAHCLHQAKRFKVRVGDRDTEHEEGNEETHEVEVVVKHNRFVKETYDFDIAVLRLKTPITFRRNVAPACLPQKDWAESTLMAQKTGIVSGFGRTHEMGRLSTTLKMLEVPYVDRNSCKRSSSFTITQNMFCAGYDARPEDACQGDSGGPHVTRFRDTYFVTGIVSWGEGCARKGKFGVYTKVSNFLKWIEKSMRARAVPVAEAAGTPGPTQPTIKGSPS

Compound | Ki (Trypsin) [nM] | Ki (Coagulation factor X [1]) [nM] | Ki (Prothrombin) [nM] | Ki (Coagulation factor X [2]) [nM] | ID50 (Oryctolagus cuniculus) [µM/h/kg]
N=C(N)c1cccc(-n2cccc2C(=O)Nc2ccc(-c3ccccc3S(N)(=O)=O)cc2)c1 | 56 |  |  |  | 
Cc1cc(C(=O)Nc2ccc(-c3ccccc3S(N)(=O)=O)cc2)n(-c2cccc(C(=N)N)c2)n1.O=C(O)C(F)(F)F |  |  |  |  | 0.023
N=C(N)c1cccc(-c2nocc2C(=O)Nc2ccc(-c3ccccc3S(N)(=O)=O)cc2)c1.O=C(O)C(F)(F)F | 21 |  |  |  | 0.31
N=C(N)c1cccc(-c2[nH]c(O)nc2C(=O)Nc2ccc(-c3ccccc3S(N)(=O)=O)cc2)c1.O=C(O)C(F)(F)F | 390 | 2.3 | 6000 |  | 
N=C(N)c1cccc(-c2ocnc2C(=O)Nc2ccc(-c3ccccc3S(N)(=O)=O)cc2)c1.O=C(O)C(F)(F)F | 261 | 2.5 | 3300 |  | 0.54
N=C(N)c1cccc(-n2cncc2C(=O)Nc2ccc(-c3ccccc3S(N)(=O)=O)cc2)c1.O=C(O)C(F)(F)F | 58 | 1.1 | 3200 |  | 
Cc1nc(C(=O)Nc2ccc(-c3ccccc3S(N)(=O)=O)cc2)c(-c2cccc(C(=N)N)c2)[nH]1.O=C(O)C(F)(F)F | 1100 | 6 | > 21000 |  | 
N=C(N)c1cccc(-c2ccccc2C(=O)Nc2ccc(-c3ccccc3S(N)(=O)=O)cc2)c1.O=C(O)C(F)(F)F | 780 | 8.2 | > 6300 |  | 
N=C(N)c1cccc(-c2ncsc2C(=O)Nc2ccc(-c3ccccc3S(N)(=O)=O)cc2)c1.O=C(O)C(F)(F)F | 97 | 0.82 | > 6300 |  | 
Cc1nc(-c2cccc(C(=N)N)c2)c(C(=O)Nc2ccc(-c3ccccc3S(N)(=O)=O)cc2)o1.O=C(O)C(F)(F)F | 190 | 0.4 | 3600 |  | 
N=C(N)c1cccc(-c2ncccc2C(=O)Nc2ccc(-c3ccccc3S(N)(=O)=O)cc2)c1.O=C(O)C(F)(F)F | 260 | 1 | 15400 |  | 
N=C(N)c1cccc(-n2nccc2C(=O)Nc2ccc(-c3ccccc3S(N)(=O)=O)cc2)c1 | 15 |  |  |  | 

Further compounds by falling Ki (Coagulation factor X [1]), results first:

Ki (Trypsin) [nM] | Ki (Coagulation factor X [1]) [nM] | Ki (Prothrombin) [nM] | Ki (Coagulation factor X [2]) [nM] | Compound | ID50 (Oryctolagus cuniculus) [µM/h/kg]
26 | 0.33 | 800 |  | N=C(N)c1cccc(-n2ccnc2C(=O)Nc2ccc(-c3ccccc3S(N)(=O)=O)cc2)c1.O=C(O)C(F)(F)F | 
27 | 0.3 | 600 |  | Cc1cn(-c2cccc(C(=N)N)c2)c(C(=O)Nc2ccc(-c3ccccc3S(N)(=O)=O)cc2)n1.O=C(O)C(F)(F)F | 
220 | 0.2 | 2640 |  | Cn1cc(C(=O)Nc2ccc(-c3ccccc3S(N)(=O)=O)cc2)c(-c2cccc(C(=N)N)c2)n1.O=C(O)C(F)(F)F | 
60 | 0.06 | 1250 | 0.08 | Cc1nc(-c2cccc(C(=N)N)c2)c(C(=O)Nc2ccc(-c3ccccc3S(N)(=O)=O)cc2)s1.O=C(O)C(F)(F)F | 0.5
6.4 | 0.037 | 300 |  | N=C(N)c1cccc(-n2nnnc2C(=O)Nc2ccc(-c3ccccc3S(N)(=O)=O)cc2)c1.O=C(O)C(F)(F)F | 0.13
3.4 | 0.023 | 300 |  | N=C(N)c1cccc(-n2nncc2C(=O)Nc2ccc(-c3ccccc3S(N)(=O)=O)cc2)c1.O=C(O)C(F)(F)F | 
